For one data set, the system named is Canidae. Conditions: oral, Dog Other, organ weight.
The subject of the next data set is Mus musculus. The conditions noted are these: subchronic; duration: 90 days; oral; organ weight.
For another data set, the system named is Oryctolagus sp. The conditions noted are these: developmental; development.

The values below come from EPA's ToxValDB 9.5 (doi:10.2903/j.efsa.2012.2496).

Each structure is given as a SMILES string.

One may read the NOAEL as the highest tested level that showed no adverse finding. Regarding `C=CCSC(=O)n1c(N)c(-c2ccccc2C)c(=O)n1C(C)C` [Fenpyrazamine], the NOAEL in the data set on Canidae (chronic, duration: 1 years) was found to be 25 mg/kg-day; in the data set with Canidae (subchronic, duration: 90 days), 25 mg/kg-day; with Mus musculus it was 28 mg/kg-day; in the data set with Oryctolagus sp., 30 mg/kg-day; in the data set with Rattus norvegicus (chronic, duration: 2 years, M, histopathology: nonneoplastic), 12.7 mg/kg-day; with Rattus norvegicus (reproduction developmental, F, organ weight) it was 20.3 mg/kg-day. In the data set with Rattus norvegicus (reproduction developmental, M, organ weight), this compound registered an NOAEL of 20 mg/kg-day. Also, the LC50 with Colinus virginianus (acute, oral, diet, mortality) is more than 954 mg/kg-day. Moreover, the LD50 in the data set on Colinus virginianus (acute, oral, mortality) was more than 2000 mg/kg-day; in the data set on Rattus norvegicus (acute, oral, mortality), more than 2000 mg/kg-day. This compound also registered an NOEC with Colinus virginianus (reproduction developmental) of 82.9 mg/kg-day. The NOEL with Rattus norvegicus (reproduction developmental, body weight) was 28.5 mg/kg-day.
